Columns and labels:
[1] = human gut metagenome, 24 h, 2 µM
[2] = (§1) The drug is tested on Z-017 corresponding to mouse gut metagenome with ENA study accession number: PRJEB37062 and ENA sample accession number: ERS12561816 for biotransformation under anaerobic condition. The drug concentrations were measured over 9 timepoints collected between 0 and 24 hours of incubation by liquid-chromatography-coupled mass spectrometry (LC–MS); conditions: 2 µM
[3] = human gut metagenome, 24 h, 2 µM; remark: listed apart in the source
[4] = human gut metagenome, 24 h, 2 µM; remark: listed apart in the source
[5] = as §1, with “Z-028” for “Z-017”, “ERS12561827” for “ERS12561816”; conditions: 2 µM
[6] = human gut metagenome, 24 h, 2 µM; remark: listed apart in the source
[7] = human gut metagenome, 24 h, 2 µM; remark: listed apart in the source
[8] = as §1, with “WLS-082” for “Z-017”, “human” for “mouse”, “ERS12561751” for “ERS12561816”; conditions: 2 µM
[9] = human gut metagenome, 24 h, 2 µM; remark: listed apart in the source
[10] = as §1, with “WLS-086” for “Z-017”, “human” for “mouse”, “ERS12561752” for “ERS12561816”; conditions: 2 µM
[11] = human gut metagenome, 24 h, 2 µM; remark: listed apart in the source
[12] = human gut metagenome, 24 h, 2 µM; remark: listed apart in the source
[13] = human gut metagenome, 24 h, 2 µM; remark: listed apart in the source
[14] = human gut metagenome, 24 h, 2 µM; remark: listed apart in the source
[15] = human gut metagenome, 24 h, 2 µM; remark: listed apart in the source
[16] = human gut metagenome, 24 h, 2 µM; remark: listed apart in the source
[17] = as §1, with “Z-016” for “Z-017”, “ERS12561815” for “ERS12561816”; conditions: 2 µM
[18] = as §1, with “Z-023” for “Z-017”, “to” for “to mouse gut”, “ERS12561822” for “ERS12561816”; conditions: 2 µM
[19] = as §1, with “Z-011” for “Z-017”, “ERS12561811” for “ERS12561816”; conditions: 2 µM
[20] = as §1, with “Z-026” for “Z-017”, “to” for “to mouse gut”, “ERS12561825” for “ERS12561816”; conditions: 2 µM
Note: call rule not given here.

- Bacterial Biotransformation [1]: Compound NOT metabolized
- Bacterial Biotransformation [2]: Compound NOT metabolized
- Bacterial Biotransformation [3]: Compound NOT metabolized
- Bacterial Biotransformation [4]: Compound NOT metabolized
- Bacterial Biotransformation [5]: Compound NOT metabolized
- Bacterial Biotransformation [6]: Compound NOT metabolized
- Bacterial Biotransformation [7]: Compound NOT metabolized
- Bacterial Biotransformation [8]: Compound NOT metabolized
- Bacterial Biotransformation [9]: Compound NOT metabolized
- Bacterial Biotransformation [10]: Compound metabolized
- Bacterial Biotransformation [11]: Compound NOT metabolized
- Bacterial Biotransformation [12]: Compound NOT metabolized
- Bacterial Biotransformation [13]: Compound NOT metabolized
- Bacterial Biotransformation [14]: Compound NOT metabolized
- Bacterial Biotransformation [15]: Compound NOT metabolized
- Bacterial Biotransformation [16]: Compound NOT metabolized
- Bacterial Biotransformation [17]: Compound NOT metabolized
- Bacterial Biotransformation [18]: Compound NOT metabolized
- Bacterial Biotransformation [19]: Compound NOT metabolized
- Bacterial Biotransformation [20]: Compound NOT metabolized
Structure (SMILES): CN1[C@@H]2CC[C@H]1C[C@@H](OC(=O)c1c[nH]c3ccccc13)C2 [TROPISETRON]

From ChEMBL document CHEMBL5724914, “Linking interpersonal differences in gut microbiota composition and drug biotransformation activity” (2024)
